{
  "source": "patent US10322136B2",
  "about": "“Composition for inhibiting growth or proliferation of chronic myelogenous leukemia cancer stem cells, and screening method therefor” (HIROSHIMA UNIVERSITY, priority 2015, dated 2019)",
  "key": {"[1]": {"system": "human CD34+CD38-Lin- CML-LICs", "experiment": "Colony-forming capacity of human CML leukemia-initiating cells", "type": "cell-based", "details": "5 μM cefadroxil, 5 days, three patients", "source_text": "Viable BM MNCs from three human patients with chronic phase CML were purchased from All cells (#06-255, #06-620, and #147742, Alameda, Calif., USA). Documents confirming the informed consent of the patient are available in http://www.veritastk.co.jp/attached/3978/AllCells_BM_Informed_Consent_Form.pdf. These cells were stained with anti-CD34(8G12), anti-CD38(HIT2), anti-CD3(SK7), anti-CD16(3G8), anti-CD19(SJ25C1), anti-CD20(L27), anti-CD14(MpP9), and anti-CD56(NCAM16.2) antibodies (all purchased from BD Biosciences). A mixture of mAbs recognizing CD3, CD16, CD19, CD20, CD14 and CD56 was used to identify Lin^− cells, and CD34^+CD38^−Lin^− cells were purified. To determine the effects of treatment with cefadroxil (5 μM) alone, or with a combination of cefadroxil+IM (1 μM; Axon Medchem) or dasatinib (500 nM; LC laboratories), CD34^+CD38^−Lin^− cells were cultured on OP-9 stromal cells under hypoxic (3% O2) conditions. After harvesting and washing with PBS, the colony-forming ability of the most primitive human CML leukemia-initiating cells (LICs) was evaluated by culture in semi-solid methylcellulose medium containing SCF, GM-CSF, IL-3, IL-6, G-CSF, and erythropoietin (Methocult GF+ H4435; Stem Cell Technologies). After growth for 7 days at 37° C. under hypoxic (3% O2) conditions, colony numbers were counted under a light microscope."}, "[2]": {"system": "Smad3 Ser208", "experiment": "Duolink in situ PLA, Smad3 Ser208 phosphorylation in LT-CML cancer stem cells", "type": "cell-based, mouse", "details": "30 min; GlySar or cefadroxil 5 μM; rapamycin 100 nM", "method": "To examine phosphorylation of Smad2, Smad3, p38MAPK, AMPK, and S6 ribosomal protein, and Foxo3a-Smad2 and Foxo3a-Smad3 interactions, Duolink® in situ PLA assay (Olink Bioscience) was used. LT-CML stem cells, ST-CML stem cells, CD48^+, MPP, and KLS^− CML cells that were freshly isolated from CML-affected mice, and LT-normal HSCs that were freshly isolated from healthy control littermates, were immediately fixed with 4% paraformaldehyde for 30 min.\nFor in vitro inhibitor experiments, LT-CML stem cells were incubated in 3% O2 at 37° C. for 30 min with vehicle (control; artificial gastric fluid solution (900 ml ddH2O containing 2.0 g of NaCl, 7 ml of conc. HCl and 3.2 g of pepsin)), 5 μM Ly364947 (TGF-β type I receptor kinase Alk5 inhibitor; Merck), 5 μM SB203580 (p38MAPK inhibitor; LC Laboratories), 5 μM GlySar (dipeptide transporter inhibitor; Sigma-Aldrich), 5 μM cefadroxil (dipeptide transporter inhibitor; Sigma-Aldrich), or 100 nM rapamycin (mTORC1 inhibitor; Cell Signaling Technologies). Treated cells were fixed with 4% paraformaldehyde for 30 min, and treated with 0.25% Triton X-100 for 15 min, washed and blocked by incubation in 5% FBS in TBS for 1 hr.\nThe proximate binding of these antibodies was then detected using Duolink® in situ PLA system which employs a set of two secondary antibodies in which one is conjugated to a minus strand PLA probe and the other is conjugated to a plus strand PLA probe. Nuclei were stained with DNA marker DAPI (Sigma). Stained slides were mounted using Fluoromount Plus (Diagnostic Biosystems) and fluorescent images were acquired by confocal microscopy (FV10i, Olympus) and Photoshop software (Adobe). The number of fluorescent foci per single cell was quantified using Duolink®Image Tool software (Olink Bioscience)."}},
  "data": [
    {"smiles": "CC1=C(C(=O)O)N2C(=O)[C@@H](NC(=O)[C@H](N)c3ccc(O)cc3)[C@H]2SC1", "note": "[cefadroxil]", "values": [
      {"measurement": "colony-forming capacity of human CML-LIC samples", "setting": "[1]", "value": "suppressed"},
      {"measurement": "Smad3 Ser208 phosphorylation", "setting": "[2]", "value": "blocked"}
    ]}
  ]
}
